Where a name gives a salt, the structure may show the parent alone. Read-outs that look alike come from different tables or passages of the source.

A short description of data set [1]: in vivo. The following applies: male mice, 7 day; for LD12.5: p.o.
Data set [2] deals with C. sporogenes ATCC 19404. Put plainly: Antianaerobic activity, MIC by standard broth dilution method (Table II). The data set is classed as cell-based. The following applies: Clostridium sporogenes, ATCC19404, 24 h, read-out: Minimal Inhibitory Concentration (MIC). On the procedure:
The activity of the compounds identified in the Table II below was tested for antianaerobic activity against one strain of Bacteroides fragilis, one strain of Bacteroides uniformis, one strain of Clostridium sporogenes and one strain of Trichomonas vaginalis as the test organism. The methods used involved determining the minimum inhibitory concentration by the standard broth dilution method. The values for metronidazole (2-methyl-5-nitro-1H-imidazole-1-ethanol) are given above for reference purposes. For convenience the compounds are referred to by an internal reference number (an HC number) and this is correlated with the number of the Example wherein its production is described.

The subject of data set [3] is T. vaginalis ATCC 30001. Described as above. It counts as cell-based. The following applies: Trichomonas vaginalis, ATCC30001, 24 h, read-out: Minimal Inhibitory Concentration (MIC). How it is done: (§1) The activity of the compounds identified in the Table II below was tested for antianaerobic activity against one strain of Bacteroides fragilis, one strain of Bacteroides uniformis, one strain of Clostridium sporogenes and one strain of Trichomonas vaginalis as the test organism. The methods used involved determining the minimum inhibitory concentration by the standard broth dilution method. […] For convenience the compounds are referred to by an internal reference number (an HC number) and this is correlated with the number of the Example wherein its production is described.

Data set [4] relates to B. fragilis ATCC 23745. The data set is described as above. The data set is classed as cell-based. To be noted: Bacteroides fragilis, ATCC23745, 24 h, read-out: Minimal Inhibitory Concentration (MIC). On the procedure: as §1
Data set [5] deals with B. uniformis ATCC 8492. Described as above. It counts as cell-based. To be noted: Bacteroides uniformis, ATCC8492, 24 h, read-out: Minimal Inhibitory Concentration (MIC). How it is done:
as §1

The term LD50 denotes the dose at which mortality reaches 50%. In the case of `Nc1nc(=O)[nH]cc1F` [5-Fluorocytosine], the LD50 at 168 h in data set [1] (mouse, in vivo, iv, read-out: LD50) amounted to 500 mg/kg. The LD12.5 in data set [1] was determined as 500 mg/kg.
`C[C@@H]1[C@H](O)[C@@H](C)/C=C/C=C/C=C/C=C/C=C/C=C/C=C/[C@H](O[C@@H]2O[C@H](C)[C@@H](O)[C@H](N)[C@@H]2O)C[C@@H]2O[C@](O)(C[C@@H](O)C[C@@H](O)[C@H](O)CC[C@@H](O)C[C@@H](O)CC(=O)O[C@H]1C)C[C@H](O)[C@H]2C(=O)O` [Amphotericin B]: the LD12.5 in data set [1] is 280 mg/kg.
Take `COc1ccc(C(Cn2ccnc2)=NNc2cc(Cl)ccc2Cl)cc1.Cl` [HC-464, 1-(4-methoxyphenyl)-2-(1H-imidazol-1-yl)ethanone, 2,5-dichlorophenylhydrazone, hydrochloride]: the MIC in data set [2] (Test 1) came to 2.5 µg/mL; in data set [2] (Test 2), 5 µg/mL; in data set [2] (Test 3), 2.5 µg/mL; in data set [3] (Test 1), 10 µg/mL; in data set [3] (Test 2), 50 µg/mL; in data set [3] (Test 3), 50 µg/mL. In addition, the MIC in data set [4] (Test 1) is 2.5 µg/mL; in data set [4] (Test 2), 5 µg/mL; in data set [4] (Test 3), 5 µg/mL; in data set [5] (Test 1) it was 2.5 µg/mL; in data set [5] (Test 2) it was 2.5 µg/mL; in data set [5] (Test 3) it was 2.5 µg/mL.
Regarding `Cl.Clc1cccc(Cl)c1NN=C(Cn1ccnc1)c1ccc(Br)s1` [HC-466, 1-(5-bromothien-2-yl)-2-(1H-imidazol-1-yl)ethanone, 2,6-dichlorophenylhydrazone, hydrochloride], the MIC in data set [2] (Test 1) stood at 5 µg/mL; in data set [2] (Test 2), 5 µg/mL; in data set [2] (Test 3) it was 5 µg/mL; in data set [3] (Test 1) it was 50 µg/mL; in data set [3] (Test 2), 50 µg/mL; in data set [3] (Test 3), 50 µg/mL. In addition, the MIC in data set [4] (Test 1) stood at 1 µg/mL; in data set [4] (Test 2), 5 µg/mL; in data set [4] (Test 3), 5 µg/mL; in data set [5] (Test 1), 1 µg/mL; in data set [5] (Test 2), 5 µg/mL; in data set [5] (Test 3), 5 µg/mL.
Take `Cl.Clc1ccc(Cl)c(NN=C(Cn2ccnc2)c2ccccc2Cl)c1` [HC-469, 1-(2-chlorophenyl)-2-(1H-imidazol-1-yl)ethanone, 2,5-dichlorophenylhydrazone, hydrochloride]: the MIC in data set [2] (Test 1) was 2.5 µg/mL; in data set [2] (Test 2), 7.5 µg/mL; in data set [2] (Test 3), 1 µg/mL; in data set [3] (Test 1), 50 µg/mL; in data set [3] (Test 2), 75 µg/mL; in data set [3] (Test 3) it was 100 µg/mL. Further, the MIC in data set [4] (Test 1) is 5 µg/mL; in data set [4] (Test 2), 5 µg/mL; in data set [4] (Test 3), 10 µg/mL; in data set [5] (Test 1) it was 5 µg/mL; in data set [5] (Test 2) it was 1 µg/mL; in data set [5] (Test 3), 2.5 µg/mL.
For the compound `Cl.FC(F)(F)c1ccc(C(Cn2ccnc2)=NNc2c(Cl)cc(Cl)cc2Cl)cc1` [HC-482, 1-(4-trifluoromethylphenyl)-2-(1H-imidazol-1-yl)ethanone, 2,4,6-trichlorophenylhydrazone, hydrochloride], the MIC in data set [2] (Test 1) is 5 µg/mL; in data set [2] (Test 2), 5 µg/mL; in data set [2] (Test 3), 5 µg/mL; in data set [3] (Test 1), 25 µg/mL; in data set [3] (Test 2), 25 µg/mL; in data set [3] (Test 3), 25 µg/mL. Further, the MIC in data set [4] (Test 1) was 5 µg/mL; in data set [4] (Test 2), 5 µg/mL; in data set [4] (Test 3) it was 5 µg/mL; in data set [5] (Test 1) it was 2.5 µg/mL; in data set [5] (Test 2), 2.5 µg/mL; in data set [5] (Test 3), 2.5 µg/mL.
With `Cl.Clc1ccc(C(Cn2ccnc2)=NNc2ccccc2Br)cc1` [HC-486, 1-(4-chlorophenyl)-2-(1H-imidazol-1-yl)ethanone, 2-bromophenylhydrazone, hydrochloride], the MIC in data set [2] (Test 1) was determined as 2.5 µg/mL; in data set [2] (Test 2) it was 5 µg/mL; in data set [2] (Test 3), 5 µg/mL; in data set [3] (Test 1), 50 µg/mL; in data set [3] (Test 2) it was 50 µg/mL; in data set [3] (Test 3) it was 75 µg/mL. For the same compound, the MIC was found to be 5 µg/mL in data set [4] (Test 1); 5 µg/mL in data set [4] (Test 2); 5 µg/mL in data set [4] (Test 3); 2.5 µg/mL in data set [5] (Test 1); 2.5 µg/mL in data set [5] (Test 2); 5 µg/mL in data set [5] (Test 3).
As for `Cl.Clc1cc(Cl)c(NN=C(Cn2ccnc2)c2ccccc2Cl)c(Cl)c1` [HC-523, 1-(2-chlorophenyl)-2-(1H-imidazol-1-yl)ethanone, 2,4,6-trichlorophenylhydrazone, hydrochloride], the MIC was determined as 2.5 µg/mL in data set [2] (Test 1); 2.5 µg/mL in data set [2] (Test 2); 5 µg/mL in data set [2] (Test 3); 50 µg/mL in data set [3] (Test 1); 50 µg/mL in data set [3] (Test 2); 50 µg/mL in data set [3] (Test 3). Also, the MIC in data set [4] (Test 1) worked out at 7.5 µg/mL; in data set [4] (Test 2), 5 µg/mL; in data set [4] (Test 3) it was 7.5 µg/mL; in data set [5] (Test 1) it was 5 µg/mL; in data set [5] (Test 2), 2.5 µg/mL; in data set [5] (Test 3), 5 µg/mL.
With `Clc1ccc(NN=C(Cn2ccnc2)c2cc(Cl)ccc2Cl)c(Cl)c1` [HC-525, 1-(2,5-dichlorophenyl)-2-(1H-imidazol-1-yl) ethanone, 2,4-dichlorophenylhydrazone, hydrochloride], the MIC in data set [2] (Test 1) was 2.5 µg/mL; in data set [2] (Test 2), 2.5 µg/mL; in data set [2] (Test 3), 2.5 µg/mL; in data set [3] (Test 1), 50 µg/mL; in data set [3] (Test 2), 50 µg/mL; in data set [3] (Test 3) it was 50 µg/mL. The MIC in data set [4] (Test 1), in data set [4] (Test 2), in data set [4] (Test 3), in data set [5] (Test 1), in data set [5] (Test 2) and in data set [5] (Test 3) was 2.5 µg/mL throughout.
For the compound `CC(C(=NNc1c(Cl)cc(Cl)cc1Cl)c1ccc(Cl)cc1)n1ccnc1` (stereo not drawn) [HC-561, 1-(4-chlorophenyl)-2-(1H-imidazol-1-yl)propanone, 2,4,6-trichlorophenylhydrazone, hydrochloride], the MIC in data set [2] (Test 1) was 1 µg/mL; in data set [2] (Test 2) it was 1 µg/mL; in data set [2] (Test 3) it was 1 µg/mL; in data set [3] (Test 1), more than 100 µg/mL; in data set [3] (Test 2), more than 100 µg/mL; in data set [3] (Test 3), more than 100 µg/mL. The MIC turned out to be 1 µg/mL in data set [4] (Test 1); 2.5 µg/mL in data set [4] (Test 2); 5 µg/mL in data set [4] (Test 3); 5 µg/mL in data set [5] (Test 1); 7.5 µg/mL in data set [5] (Test 2); 7.5 µg/mL in data set [5] (Test 3).
